Test results published in ChEMBL document CHEMBL5696442, “Discovery of type II inhibitors of TGFβ-activated kinase 1 (TAK1) and mitogen-activated protein kinase kinase kinase kinase 2 (MAP4K2)” (J Med Chem, 2015).
The source made the active and inactive calls. The calls are words filed in the database; no cut-off is given here.

What was measured:
[1] = biological target: Microtubule-associated serine/threonine-protein kinase 2 (Homo sapiens) (UniProt Q6P0Q8); assay: Inhibition of MAST2 Lys2 labeling site harbouring DLKPDNLLITSMGHIK in human Huh-7 cell lysate at 1 uM by KiNativ Profiling analysis relative to control; assay type: subcellular
Sequence of Microtubule-associated serine/threonine-protein kinase 2 (Homo sapiens) (Q6P0Q8 whole entry): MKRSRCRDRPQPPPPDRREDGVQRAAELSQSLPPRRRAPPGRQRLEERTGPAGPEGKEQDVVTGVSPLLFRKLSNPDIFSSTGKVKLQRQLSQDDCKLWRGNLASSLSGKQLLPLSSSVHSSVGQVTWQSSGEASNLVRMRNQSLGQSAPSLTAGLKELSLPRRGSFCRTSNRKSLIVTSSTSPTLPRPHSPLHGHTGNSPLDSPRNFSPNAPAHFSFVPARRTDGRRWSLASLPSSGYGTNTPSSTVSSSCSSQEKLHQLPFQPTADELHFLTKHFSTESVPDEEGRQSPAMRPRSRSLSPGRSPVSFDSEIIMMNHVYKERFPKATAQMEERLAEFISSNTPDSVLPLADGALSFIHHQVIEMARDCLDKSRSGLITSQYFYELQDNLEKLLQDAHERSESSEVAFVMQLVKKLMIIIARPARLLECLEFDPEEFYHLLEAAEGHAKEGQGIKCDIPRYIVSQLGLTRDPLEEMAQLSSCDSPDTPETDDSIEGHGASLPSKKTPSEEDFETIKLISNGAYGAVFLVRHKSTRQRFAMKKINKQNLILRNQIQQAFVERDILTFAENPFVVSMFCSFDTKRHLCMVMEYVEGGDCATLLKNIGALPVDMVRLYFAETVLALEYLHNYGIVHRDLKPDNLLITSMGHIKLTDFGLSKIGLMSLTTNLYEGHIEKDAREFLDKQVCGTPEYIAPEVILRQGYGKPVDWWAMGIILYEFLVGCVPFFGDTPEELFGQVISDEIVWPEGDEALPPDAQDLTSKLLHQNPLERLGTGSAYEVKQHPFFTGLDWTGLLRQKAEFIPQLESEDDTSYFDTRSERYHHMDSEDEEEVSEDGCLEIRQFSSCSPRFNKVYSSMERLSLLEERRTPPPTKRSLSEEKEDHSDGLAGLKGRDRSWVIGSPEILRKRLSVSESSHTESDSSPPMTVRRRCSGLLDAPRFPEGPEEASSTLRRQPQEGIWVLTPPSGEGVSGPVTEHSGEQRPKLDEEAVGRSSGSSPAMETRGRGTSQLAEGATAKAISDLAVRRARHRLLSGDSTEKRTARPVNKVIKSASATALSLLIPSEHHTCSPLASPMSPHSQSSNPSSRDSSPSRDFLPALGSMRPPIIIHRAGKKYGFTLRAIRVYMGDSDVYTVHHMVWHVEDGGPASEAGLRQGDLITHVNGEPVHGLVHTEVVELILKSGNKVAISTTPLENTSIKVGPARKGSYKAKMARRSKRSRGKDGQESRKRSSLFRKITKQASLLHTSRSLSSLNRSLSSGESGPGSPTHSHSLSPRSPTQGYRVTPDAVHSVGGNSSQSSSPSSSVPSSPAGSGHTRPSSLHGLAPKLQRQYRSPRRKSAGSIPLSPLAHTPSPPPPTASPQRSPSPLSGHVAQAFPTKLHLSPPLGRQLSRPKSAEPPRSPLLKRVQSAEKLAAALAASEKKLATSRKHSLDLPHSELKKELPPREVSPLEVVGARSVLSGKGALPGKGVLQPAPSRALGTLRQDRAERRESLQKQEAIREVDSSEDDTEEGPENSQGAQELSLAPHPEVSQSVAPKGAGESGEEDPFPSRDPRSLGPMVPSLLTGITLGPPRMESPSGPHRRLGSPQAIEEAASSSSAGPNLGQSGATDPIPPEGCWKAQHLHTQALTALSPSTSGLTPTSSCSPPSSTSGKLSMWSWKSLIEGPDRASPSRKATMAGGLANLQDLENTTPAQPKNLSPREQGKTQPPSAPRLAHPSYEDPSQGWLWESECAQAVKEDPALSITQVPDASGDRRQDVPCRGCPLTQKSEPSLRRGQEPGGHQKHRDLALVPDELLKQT

[2] = biological target: Serine/threonine-protein kinase MARK2 (Homo sapiens) (UniProt Q7KZI7); assay: Inhibition of MARK2 Lys1 labeling site harbouring HILTGKEVAVKIIDKTQLNSSSLQK in human Huh-7 cell lysate at 1 uM by KiNativ Profiling analysis relative to control; assay type: subcellular
[3] = biological target: Serine/threonine-protein kinase WNK2 (Homo sapiens) (UniProt Q9Y3S1); assay: Inhibition of Wnk2 Lys2 labeling site in human Huh-7 cells at 1 uM by KiNativ Profiling analysis relative to control; assay type: cell-based
Sequence of Serine/threonine-protein kinase WNK2 (Homo sapiens) (Q9Y3S1 whole entry): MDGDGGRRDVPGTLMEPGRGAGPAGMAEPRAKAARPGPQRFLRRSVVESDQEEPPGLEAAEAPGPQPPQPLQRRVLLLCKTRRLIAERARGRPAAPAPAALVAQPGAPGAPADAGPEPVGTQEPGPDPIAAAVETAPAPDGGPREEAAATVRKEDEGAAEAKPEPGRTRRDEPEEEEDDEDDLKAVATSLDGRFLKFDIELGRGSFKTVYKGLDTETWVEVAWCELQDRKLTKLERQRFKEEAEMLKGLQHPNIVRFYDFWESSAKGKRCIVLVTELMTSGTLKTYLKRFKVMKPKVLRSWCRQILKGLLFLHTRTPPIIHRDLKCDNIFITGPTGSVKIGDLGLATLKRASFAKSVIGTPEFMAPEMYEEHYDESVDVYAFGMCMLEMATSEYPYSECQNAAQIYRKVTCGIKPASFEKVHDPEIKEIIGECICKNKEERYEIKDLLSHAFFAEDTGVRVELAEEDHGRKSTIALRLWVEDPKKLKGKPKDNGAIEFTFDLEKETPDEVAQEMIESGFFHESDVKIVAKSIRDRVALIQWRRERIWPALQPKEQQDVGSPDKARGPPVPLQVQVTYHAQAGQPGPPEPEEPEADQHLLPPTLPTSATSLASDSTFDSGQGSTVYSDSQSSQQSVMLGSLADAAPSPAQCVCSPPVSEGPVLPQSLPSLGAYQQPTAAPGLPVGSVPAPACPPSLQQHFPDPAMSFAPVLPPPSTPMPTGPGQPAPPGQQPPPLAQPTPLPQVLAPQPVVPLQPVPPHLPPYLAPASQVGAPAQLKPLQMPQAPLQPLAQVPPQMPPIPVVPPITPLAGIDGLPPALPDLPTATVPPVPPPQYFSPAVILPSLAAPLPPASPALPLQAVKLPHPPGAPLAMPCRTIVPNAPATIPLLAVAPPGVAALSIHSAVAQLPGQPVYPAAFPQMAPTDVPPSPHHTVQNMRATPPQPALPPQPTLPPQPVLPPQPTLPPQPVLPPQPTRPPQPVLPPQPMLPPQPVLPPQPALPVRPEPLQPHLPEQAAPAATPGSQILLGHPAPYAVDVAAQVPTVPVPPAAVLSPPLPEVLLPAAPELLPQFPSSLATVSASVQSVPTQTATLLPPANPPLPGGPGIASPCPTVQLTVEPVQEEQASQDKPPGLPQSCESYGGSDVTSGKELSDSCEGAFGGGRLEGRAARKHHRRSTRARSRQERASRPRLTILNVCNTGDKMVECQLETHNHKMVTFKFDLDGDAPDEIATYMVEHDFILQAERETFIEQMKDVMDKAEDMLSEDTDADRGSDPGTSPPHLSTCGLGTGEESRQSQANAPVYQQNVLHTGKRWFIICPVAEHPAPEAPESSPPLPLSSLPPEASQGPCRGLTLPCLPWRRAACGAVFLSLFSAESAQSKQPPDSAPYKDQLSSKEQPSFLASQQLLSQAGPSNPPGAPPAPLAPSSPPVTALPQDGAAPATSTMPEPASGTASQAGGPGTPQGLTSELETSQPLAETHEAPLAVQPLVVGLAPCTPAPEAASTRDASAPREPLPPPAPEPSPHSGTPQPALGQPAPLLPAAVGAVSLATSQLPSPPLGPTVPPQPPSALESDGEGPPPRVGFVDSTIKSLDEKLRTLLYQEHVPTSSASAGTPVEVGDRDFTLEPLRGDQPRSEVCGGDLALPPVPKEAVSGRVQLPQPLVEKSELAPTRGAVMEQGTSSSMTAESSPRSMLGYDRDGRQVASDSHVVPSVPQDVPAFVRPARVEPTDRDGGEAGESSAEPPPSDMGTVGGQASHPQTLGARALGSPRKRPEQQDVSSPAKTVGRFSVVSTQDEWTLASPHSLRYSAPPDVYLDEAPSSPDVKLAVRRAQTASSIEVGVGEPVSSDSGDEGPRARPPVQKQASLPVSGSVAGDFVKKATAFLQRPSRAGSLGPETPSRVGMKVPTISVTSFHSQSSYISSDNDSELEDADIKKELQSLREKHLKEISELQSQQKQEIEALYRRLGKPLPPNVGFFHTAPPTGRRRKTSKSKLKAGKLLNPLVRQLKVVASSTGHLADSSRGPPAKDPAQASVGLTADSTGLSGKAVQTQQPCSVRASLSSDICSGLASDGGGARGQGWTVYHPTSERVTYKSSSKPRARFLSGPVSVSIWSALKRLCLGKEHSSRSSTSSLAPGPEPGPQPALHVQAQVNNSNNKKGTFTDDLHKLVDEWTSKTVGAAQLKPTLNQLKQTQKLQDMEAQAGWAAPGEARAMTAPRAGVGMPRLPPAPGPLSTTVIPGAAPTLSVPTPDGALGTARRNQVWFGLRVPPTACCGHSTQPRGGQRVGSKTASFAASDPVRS

[4] = biological target: T1, Serine/threonine-protein kinase greatwall (Homo sapiens) (UniProt Q96GX5); assay: Inhibition of MASTL ATP labeling site in human Huh-7 cell lysate at 1 uM by KiNativ Profiling analysis relative to control; assay type: subcellular
T1 sequence (whole entry): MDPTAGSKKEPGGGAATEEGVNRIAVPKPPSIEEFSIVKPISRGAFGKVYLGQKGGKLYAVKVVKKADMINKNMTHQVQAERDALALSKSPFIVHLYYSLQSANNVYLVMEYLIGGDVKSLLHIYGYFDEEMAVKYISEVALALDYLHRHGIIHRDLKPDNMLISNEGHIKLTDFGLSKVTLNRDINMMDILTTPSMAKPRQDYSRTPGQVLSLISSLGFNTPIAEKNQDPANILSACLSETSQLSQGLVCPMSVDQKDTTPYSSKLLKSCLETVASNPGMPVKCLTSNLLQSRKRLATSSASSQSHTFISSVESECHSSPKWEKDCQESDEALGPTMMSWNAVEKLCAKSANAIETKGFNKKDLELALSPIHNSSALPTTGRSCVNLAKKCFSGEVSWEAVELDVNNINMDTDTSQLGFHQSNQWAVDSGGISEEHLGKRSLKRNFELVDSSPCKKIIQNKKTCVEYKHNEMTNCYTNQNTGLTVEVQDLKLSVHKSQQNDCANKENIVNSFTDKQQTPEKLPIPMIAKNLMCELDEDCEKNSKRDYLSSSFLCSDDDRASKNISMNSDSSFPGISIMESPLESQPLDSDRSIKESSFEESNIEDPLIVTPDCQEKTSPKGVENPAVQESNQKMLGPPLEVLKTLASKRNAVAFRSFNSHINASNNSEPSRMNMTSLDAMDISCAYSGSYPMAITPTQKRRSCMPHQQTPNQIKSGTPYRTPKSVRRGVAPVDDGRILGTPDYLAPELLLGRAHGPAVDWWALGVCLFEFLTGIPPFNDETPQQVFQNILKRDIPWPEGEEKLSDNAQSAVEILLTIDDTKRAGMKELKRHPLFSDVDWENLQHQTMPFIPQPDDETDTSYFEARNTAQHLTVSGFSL

[5] = biological target: T2, NUAK family SNF1-like kinase 1 (Homo sapiens) (UniProt O60285); assay: Inhibition of ARK5 (unknown origin) at 1 uM by Ambit Kinomescan binding assay relative to control
T2 sequence (whole entry): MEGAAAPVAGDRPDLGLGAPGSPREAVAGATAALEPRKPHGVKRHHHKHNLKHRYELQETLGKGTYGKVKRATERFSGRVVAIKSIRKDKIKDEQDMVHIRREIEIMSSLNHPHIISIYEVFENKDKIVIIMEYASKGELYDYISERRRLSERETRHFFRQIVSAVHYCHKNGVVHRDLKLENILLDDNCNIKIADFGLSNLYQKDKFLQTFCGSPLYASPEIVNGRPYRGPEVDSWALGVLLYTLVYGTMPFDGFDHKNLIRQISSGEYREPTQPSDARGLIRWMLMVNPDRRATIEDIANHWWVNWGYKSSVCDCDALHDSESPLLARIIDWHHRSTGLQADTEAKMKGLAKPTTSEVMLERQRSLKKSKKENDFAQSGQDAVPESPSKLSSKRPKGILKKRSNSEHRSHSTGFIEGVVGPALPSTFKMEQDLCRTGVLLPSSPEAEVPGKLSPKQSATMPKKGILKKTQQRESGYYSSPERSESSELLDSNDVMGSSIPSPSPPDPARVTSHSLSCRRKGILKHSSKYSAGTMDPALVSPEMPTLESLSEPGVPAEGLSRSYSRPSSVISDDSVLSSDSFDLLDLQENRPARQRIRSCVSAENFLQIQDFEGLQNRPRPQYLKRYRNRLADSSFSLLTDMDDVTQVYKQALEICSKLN

[6] = biological target: Cytoplasmic tyrosine-protein kinase BMX (Homo sapiens) (UniProt P51813); assay: Inhibition of BMX (unknown origin) at 1 uM by Ambit Kinomescan binding assay relative to control; values are per cent of control
[7] = biological target: Calcium/calmodulin-dependent protein kinase type IV (Homo sapiens) (UniProt Q16566); assay: Inhibition of CAMK4 (unknown origin) at 1 uM by Ambit Kinomescan binding assay relative to control; values are per cent of control
[8] = biological target: Serine/threonine-protein kinase PLK4 (Homo sapiens) (UniProt O00444); assay: Inhibition of PLK4 (unknown origin) at 10 uM by Ambit Kinomescan binding assay
Sequence of Serine/threonine-protein kinase PLK4 (Homo sapiens) (O00444 whole entry): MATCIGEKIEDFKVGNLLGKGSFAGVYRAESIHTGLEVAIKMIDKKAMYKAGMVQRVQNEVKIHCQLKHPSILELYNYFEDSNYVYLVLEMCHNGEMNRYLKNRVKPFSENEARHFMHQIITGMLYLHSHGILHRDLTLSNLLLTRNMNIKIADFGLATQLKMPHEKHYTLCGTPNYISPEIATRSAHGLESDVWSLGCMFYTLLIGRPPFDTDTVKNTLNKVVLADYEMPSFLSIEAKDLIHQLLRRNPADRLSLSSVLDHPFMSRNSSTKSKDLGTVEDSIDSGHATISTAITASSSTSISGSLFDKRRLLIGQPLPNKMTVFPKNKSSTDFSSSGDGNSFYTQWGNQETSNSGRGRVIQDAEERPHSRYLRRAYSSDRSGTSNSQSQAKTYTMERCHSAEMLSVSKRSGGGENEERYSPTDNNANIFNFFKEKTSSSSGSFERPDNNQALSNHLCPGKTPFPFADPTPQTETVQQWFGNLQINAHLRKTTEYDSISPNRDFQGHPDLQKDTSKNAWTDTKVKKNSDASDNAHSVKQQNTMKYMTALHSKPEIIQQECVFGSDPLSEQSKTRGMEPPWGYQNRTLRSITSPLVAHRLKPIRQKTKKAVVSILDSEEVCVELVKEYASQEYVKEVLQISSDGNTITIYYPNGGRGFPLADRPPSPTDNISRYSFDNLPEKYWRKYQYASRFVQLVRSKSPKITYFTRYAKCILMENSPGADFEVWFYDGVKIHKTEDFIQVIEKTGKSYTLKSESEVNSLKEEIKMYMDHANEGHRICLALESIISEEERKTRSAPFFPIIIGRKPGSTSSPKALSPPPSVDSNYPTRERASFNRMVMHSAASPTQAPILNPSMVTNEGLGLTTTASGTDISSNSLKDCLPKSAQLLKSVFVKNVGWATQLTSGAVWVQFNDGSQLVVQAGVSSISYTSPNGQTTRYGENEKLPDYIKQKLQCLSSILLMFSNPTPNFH

CNc1cc(Oc2cc(C(=O)Nc3cc(N4CCN(C)CC4)cc(C(F)(F)F)c3)ccc2C)ncn1
inhibition [1]: 7.2%
inhibition [2]: -1.9%
inhibition [3]: 15.3%
inhibition [4]: 8.6%

CCN1CCN(Cc2ccc(NC(=O)c3ccc(C)c(/C=C/c4cnc5[nH]ccc5c4OC)c3)cc2C(F)(F)F)CC1
inhibition [5]: 100%
residual activity [6]: 1.6%
residual activity [7]: 100%

CCN1CCN(Cc2ccc(NC(=O)c3ccc(C)c(Oc4ccnc5[nH]ccc45)c3)cc2C(F)(F)F)CC1
inhibition [8]: inactive
